# Experimental data reported in patent publication US20060122214A1, “Agent for prophylaxis and treatment of angiostenosis” (priority 1999, published 2006).
# Legend:
# [1] = tested on: left carotid artery intima of WKY rats; assay: Proliferation of regenerated intima after balloon injury of carotid artery in rat; format: in vivo; settings: 30 mg/kg intraperitoneal, consecutively from 3 days before operation, 14 days after the operation, control 1.88±0.24, sham 0.03±0.01
# Experimental: Effect on Proliferation of Regenerated Intima after Balloon Injury of Carotid Artery in Rat 2F Fogarty catheter was inserted from the outer left carotid artery of 8-week-old male WKY rats under anesthesia and inflated in the left common carotid artery, whereby intima was detached in the entire length. Physiological saline was consecutively administered to a control group, and the test drug (Y-27632) (30 mg/kg) was consecutively administered to a test group, wherein both groups underwent intraperitoneal administration starting from 3 days before operation. The rats free of the intima detachment treatment were used as a sham group. At 14 days after the operation, left carotid artery was subjected to perfusion fixation and removed thereafter, stained with HE, and a new intima thickness/medial thickness (I/M) ratio was measured.
# [2] = tested on: vascular smooth muscle cells (VSMC) derived from WKY rat aortic tunica media; assay: Migration ability of cultured VSMC (96 well chemotaxis chamber, A595); format: cell-based; settings: for A595 (VSMC migrated to the lower surface of the membrane): Y-27632 10 μM, cultured for 18 hours
# Experimental: (2) Effect on Migration Ability of Cultured VSMC (Method) A serum free medium or a medium containing 10% serum, which contained the test drug (Y-27632, 10 μM), was placed in a 96 well chemotaxis lower chamber, and a serum free medium containing the test drug was placed in 96 well chemotaxis upper and lower chambers where VSMC were suspended, and then cultured for 18 hours. The VSMC migrated to the lower surface of the membrane were stained with QuickDiff (International Reagents Corporation) and absorbance was measured at A595.
# [3] = tested on: vascular smooth muscle cells (VSMC) derived from WKY rat aortic tunica media; assay: Proliferation ability of VSMC ([3H] thymidine uptake method); format: cell-based; settings: for [3H] thymidine uptake: 24 hours of culture, n = 5
# Experimental: (1) Effect on Proliferation Ability of Vascular Smooth Muscle Cells (VSMC) Derived from WKY Rat Aortic Tunica Media (Method) VSMC were separated and cultured according to the method of Yamamoto et al. (Yamamoto H, et al., Br. J. Exp. Pathol. 64; 156-165, 1983). The proliferation ability of VSMC was determined according to the method of Berk et al. [[^3H] thymidine uptake method; Berk B C, et al., J. Cell Physiol. 137; 391-401, 1988]. A DMEM medium containing 10% serum was changed every two days and the cells were cultured on a dish. The cells after 5 to 10 passages were subjected to the experiment. VSMC were cultured in a medium containing 1.0% serum for 24 hours and in a serum free medium for 24 hours to synchronize the cell cycle. The VSMC were transferred to a medium containing 10% fetal calf serum or a serum free medium and [^3H] thymidine (2 μCi/ml) was added to each medium to label VSMC. The test drug (Y-27632) (10 μM or 30 μM) waw simultaneously added, and after 24 hours of culture, VSMC were recovered, admixed with a scintillator (ACSII, Amersham) and subjected to the measurement of radioactivity by a liquid scintillation counter (LS6500, Beckman), based on which the [^3H] thymidine uptake was measured.
compound,measurement,setting,value
"C[C@@H](N)[C@H]1CC[C@H](C(=O)Nc2ccncc2)CC1 [Compound Y-27632, (+)-trans-4-(1-aminoethyl)-1-(4-pyridylcarbamoyl)cyclohexane 2HCl.1H2O]",new intima thickness/medial thickness (I/M) ratio,[1],0.46±0.22
same,A595 (VSMC migrated to the lower surface of the membrane),[2]; +10% FCS,0.036 ± 0.010 arbitrary unit/well
same,A595 (VSMC migrated to the lower surface of the membrane),[2]; FCS-Free,0.007 ± 0.003 arbitrary unit/well
same,effect on migration ability of VSMC (in words),[2]; both medium containing 10% serum and serum free medium,suppressed the migration ability
same,[3H] thymidine uptake,"[3]; +10% FCS, Y-27632 10 μM",360153 ± 10425 dpm/dish
same,[3H] thymidine uptake,"[3]; +10% FCS, Y-27632 30 μM",366089 ± 12882 dpm/dish
same,[3H] thymidine uptake,"[3]; FCS-free medium, Y-27632 10 μM",150381 ± 6515 dpm/dish
same,[3H] thymidine uptake,"[3]; FCS-free medium, Y-27632 30 μM",127767 ± 2482 dpm/dish
same,effect on [3H] thymidine uptake (in words),[3]; serum stimulation group and control group (serum free),did not affect
